Measured values from patent US20250243180A1, “TARGETED PROTEIN DEGRADATION” (Monte Rosa Therapeutics AG, priority 2023, published 2025).
Structures can show the parent of a compound that is named as a salt. Where two headings read alike, the source gives them in different places.

Tests used:
CRBN-DDB1 = CRBN-DDB1 (Homo sapiens (Human), UniProt Q96SW2); assay: Compound binding to CRBN by HTRF assay
Method in brief: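 Ki calculated via Cheng-Prusoff from geometric-mean EC50 values, after normalizing the HTRF ratio to lenalidomide (active) and DMSO (neutral) controls. Compounds (11 points, 1:3 steps) incubated 30 min at ambient temperature with CRBN-DDB1 2.5 nM, anti-His Tb cryptate and Cy5-thalidomide tracer 100 nM.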

NEK7 = NEK7 (Homo sapiens (Human), UniProt Q8TDX7+Q96SW2); assay: NEK7 NanoBiT degradation assay in Cal51 NEK7 NanoBiT cell line; type: cell-based; conditions: Cal51 NEK7 NanoBiT cells, 24 hours; for Dmax: CAL-51
Chain of NEK7 (Q8TDX7 whole entry): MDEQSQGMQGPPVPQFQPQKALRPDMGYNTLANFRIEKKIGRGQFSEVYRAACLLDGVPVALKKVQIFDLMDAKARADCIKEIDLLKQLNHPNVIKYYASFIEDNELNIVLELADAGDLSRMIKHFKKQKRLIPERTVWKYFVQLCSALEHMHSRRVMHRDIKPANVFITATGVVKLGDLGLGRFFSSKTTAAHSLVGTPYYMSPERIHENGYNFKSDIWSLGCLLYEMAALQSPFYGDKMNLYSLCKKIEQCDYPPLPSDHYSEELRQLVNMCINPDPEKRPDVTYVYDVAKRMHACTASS
Chain of NEK7 (Q96SW2 whole entry): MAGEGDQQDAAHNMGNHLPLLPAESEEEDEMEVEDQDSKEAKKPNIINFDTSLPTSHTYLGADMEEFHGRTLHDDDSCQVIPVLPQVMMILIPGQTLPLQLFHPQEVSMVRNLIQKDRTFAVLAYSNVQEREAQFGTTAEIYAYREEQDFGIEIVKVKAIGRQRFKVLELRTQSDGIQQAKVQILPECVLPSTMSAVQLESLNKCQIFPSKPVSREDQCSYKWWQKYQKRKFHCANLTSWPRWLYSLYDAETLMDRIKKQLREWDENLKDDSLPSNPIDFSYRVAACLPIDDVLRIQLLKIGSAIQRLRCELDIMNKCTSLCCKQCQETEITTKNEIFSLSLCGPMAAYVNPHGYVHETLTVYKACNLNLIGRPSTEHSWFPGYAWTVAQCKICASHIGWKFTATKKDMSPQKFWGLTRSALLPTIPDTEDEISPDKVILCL
Chain of NEK7 (Q16531 2-1140 partner): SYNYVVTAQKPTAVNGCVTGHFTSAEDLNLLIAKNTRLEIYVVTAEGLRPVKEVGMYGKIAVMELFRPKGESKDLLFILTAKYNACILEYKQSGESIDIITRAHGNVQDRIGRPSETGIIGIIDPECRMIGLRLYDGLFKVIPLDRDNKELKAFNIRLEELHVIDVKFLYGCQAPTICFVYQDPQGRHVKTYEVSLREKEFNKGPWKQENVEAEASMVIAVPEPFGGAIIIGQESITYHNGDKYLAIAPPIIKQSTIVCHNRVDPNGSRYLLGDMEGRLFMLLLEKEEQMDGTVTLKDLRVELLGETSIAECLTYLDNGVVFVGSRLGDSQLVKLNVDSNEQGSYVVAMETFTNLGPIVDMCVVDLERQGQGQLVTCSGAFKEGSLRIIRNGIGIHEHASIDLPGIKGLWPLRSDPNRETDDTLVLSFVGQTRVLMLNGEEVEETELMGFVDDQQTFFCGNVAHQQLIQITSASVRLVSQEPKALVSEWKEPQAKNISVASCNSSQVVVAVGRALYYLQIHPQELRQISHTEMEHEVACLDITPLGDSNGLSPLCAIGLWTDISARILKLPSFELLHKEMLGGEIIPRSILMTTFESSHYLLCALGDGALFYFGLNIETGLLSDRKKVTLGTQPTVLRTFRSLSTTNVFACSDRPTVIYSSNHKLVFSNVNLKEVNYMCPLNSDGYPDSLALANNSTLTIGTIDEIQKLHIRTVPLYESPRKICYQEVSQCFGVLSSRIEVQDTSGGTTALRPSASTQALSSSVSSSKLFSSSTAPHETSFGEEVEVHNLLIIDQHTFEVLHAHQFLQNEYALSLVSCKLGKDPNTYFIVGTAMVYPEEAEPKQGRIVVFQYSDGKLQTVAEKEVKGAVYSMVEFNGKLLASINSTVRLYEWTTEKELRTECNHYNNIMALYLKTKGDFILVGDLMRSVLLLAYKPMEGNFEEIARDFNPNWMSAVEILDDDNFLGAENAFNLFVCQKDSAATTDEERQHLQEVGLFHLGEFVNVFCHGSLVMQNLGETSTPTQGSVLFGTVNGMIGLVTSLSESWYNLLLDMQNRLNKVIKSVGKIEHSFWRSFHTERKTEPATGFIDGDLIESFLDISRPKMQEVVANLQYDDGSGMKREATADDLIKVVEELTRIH
Method in brief: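 EC50 comes from a 4-parameter fit of control-normalized luminescence. The luminescence reports HiBiT-NEK7 (endogenous knock-in) complemented by stably expressed LgBiT in Cal51 cells after 24 h compound exposure at 37 °C. Final concentrations ran 1 μM to 0.05 nM, with Endurazine substrate present in the medium throughout.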

[1] = NEK7 degradation, read-out: NanoBiT Dmax
[2] = NEK7 degradation, read-out: NanoBiT DC50

Chain of CRBN-DDB1 (Q96SW2 whole entry): as the sequence (Q96SW2 whole entry) above
Chain of CRBN-DDB1 (Q16531 whole entry partner): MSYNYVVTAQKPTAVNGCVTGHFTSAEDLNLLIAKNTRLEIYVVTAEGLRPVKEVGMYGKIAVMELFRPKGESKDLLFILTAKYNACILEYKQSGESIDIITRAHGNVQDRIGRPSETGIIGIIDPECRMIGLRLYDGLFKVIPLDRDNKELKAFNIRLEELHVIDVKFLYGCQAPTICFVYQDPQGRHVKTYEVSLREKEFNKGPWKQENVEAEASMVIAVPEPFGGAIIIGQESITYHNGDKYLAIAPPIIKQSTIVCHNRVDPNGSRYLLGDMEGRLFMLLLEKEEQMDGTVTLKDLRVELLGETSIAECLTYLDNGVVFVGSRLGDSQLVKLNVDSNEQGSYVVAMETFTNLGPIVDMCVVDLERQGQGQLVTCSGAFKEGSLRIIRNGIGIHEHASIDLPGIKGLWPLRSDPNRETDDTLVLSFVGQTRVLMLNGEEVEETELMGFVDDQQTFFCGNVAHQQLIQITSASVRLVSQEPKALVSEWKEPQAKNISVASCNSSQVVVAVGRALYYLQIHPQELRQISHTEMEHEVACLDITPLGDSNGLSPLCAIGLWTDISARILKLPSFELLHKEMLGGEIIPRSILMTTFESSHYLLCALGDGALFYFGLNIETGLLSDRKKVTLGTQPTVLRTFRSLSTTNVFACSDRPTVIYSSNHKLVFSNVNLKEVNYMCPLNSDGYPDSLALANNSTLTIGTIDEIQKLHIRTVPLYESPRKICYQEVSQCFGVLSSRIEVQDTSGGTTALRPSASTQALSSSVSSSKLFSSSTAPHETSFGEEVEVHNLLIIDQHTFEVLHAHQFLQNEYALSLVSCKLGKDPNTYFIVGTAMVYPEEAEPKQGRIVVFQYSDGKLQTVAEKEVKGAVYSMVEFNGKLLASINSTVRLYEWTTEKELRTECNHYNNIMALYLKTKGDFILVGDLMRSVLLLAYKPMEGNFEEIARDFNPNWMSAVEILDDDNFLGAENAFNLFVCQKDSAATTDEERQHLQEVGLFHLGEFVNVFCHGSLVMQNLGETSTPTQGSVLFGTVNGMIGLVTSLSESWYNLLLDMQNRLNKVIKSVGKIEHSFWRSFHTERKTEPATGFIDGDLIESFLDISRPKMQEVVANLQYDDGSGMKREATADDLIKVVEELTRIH

EC50 (CRBN-DDB1) [nM]	EC50 (CRBN-DDB1; HTRF class, Cereblon binding) [nM]	Dmax (NEK7; read-out: NEK7 NanoBiT Dmax) [%]	Dmax (NEK7; [1]) [%]	DC50 (NEK7; read-out: NEK7 NanoBiT DC50) [nM]	DC50 (NEK7; [2]) [nM]	SMILES
70	≤ 100	71	50 to 75	54	≤ 100	CC(C)(C(=O)NCc1cc(Cl)c(C2CCC(=O)NC2=O)c(Cl)c1)c1ccns1 (stereo not drawn) [Compound 125]
50	≤ 100	94	> 75	3	≤ 100	CC(C)(C(=O)NCc1cc(Cl)c(C2CCC(=O)NC2=O)c(Cl)c1)c1ccsc1 (stereo not drawn) [Compound 126, N-(3,5-dichloro-4-(2,6-dioxopiperidin-3-yl)benzyl)-2-methyl-2-(thiophen-3-yl)propanamide]
40	≤ 100	90	> 75	5	≤ 100	O=C1CCC(c2c(Cl)cc(CNC(=O)C3(c4ccccc4)CCOC3)cc2Cl)C(=O)N1 (stereo not drawn) [Compound 127, N-(3,5-dichloro-4-(2,6-dioxopiperidin-3-yl)benzyl)-3-phenyltetrahydrofuran-3-carboxamide]
40	≤ 100	95	> 75	8	≤ 100	O=C1CCC(c2c(Cl)cc(CNC(=O)C3(c4ccccc4)CCOCC3)cc2Cl)C(=O)N1 (stereo not drawn) [Compound 128, N-(3,5-dichloro-4-(2,6-dioxopiperidin-3-yl)benzyl)-4-phenyltetrahydro-2H-pyran-4-carboxamide]
90	≤ 100	90	> 75	22	≤ 100	O=C1CCC(c2c(Cl)cc(CNC(=O)C3(c4ccccc4)COC3)cc2Cl)C(=O)N1 (stereo not drawn) [Compound 129]
40	≤ 100	96	> 75	2	≤ 100	O=C1CCC(c2c(Cl)cc(CNC(=O)C3(c4ccccc4)CCC3)cc2Cl)C(=O)N1 (stereo not drawn) [Compound 130, N-(3,5-dichloro-4-(2,6-dioxopiperidin-3-yl)benzyl)-1-phenylcyclobutane-1-carboxamide]
20	≤ 100	96	> 75	1	≤ 100	O=C1CCC(c2c(Cl)cc(CNC(=O)C3(c4ccc5cn[nH]c5c4)CCOCC3)cc2Cl)C(=O)N1 (stereo not drawn) [Compound 131, N-(3,5-dichloro-4-(2,6-dioxopiperidin-3-yl)benzyl)-4-(1H-indazol-6-yl)tetrahydro-2H-pyran-4-carboxamide]
50	≤ 100	92	> 75	5	≤ 100	O=C1CCC(c2c(Cl)cc(CNC(=O)C3(c4ccc5[nH]ncc5c4)CCOCC3)cc2Cl)C(=O)N1 (stereo not drawn) [Compound 132, N-(3,5-dichloro-4-(2,6-dioxopiperidin-3-yl)benzyl)-4-(1H-indazol-5-yl)tetrahydro-2H-pyran-4-carboxamide]
30	≤ 100	94	> 75	2	≤ 100	Cn1ncc2ccc(C3(C(=O)NCc4cc(Cl)c(C5CCC(=O)NC5=O)c(Cl)c4)CCOCC3)cc21 (stereo not drawn) [Compound 133]
70	≤ 100	93	> 75	2	≤ 100	Cn1ncc2ccc(C3(C(=O)NCc4cc(Cl)c(C5CCC(=O)NC5=O)c(Cl)c4)CC(=O)C3)cc21 (stereo not drawn) [Compound 134, N-(3,5-dichloro-4-(2,6-dioxopiperidin-3-yl)benzyl)-1-(1-methyl-1H-indazol-6-yl)-3-oxocyclobutane-1-carboxamide]
60	≤ 100	65	50 to 75	63	≤ 100	O=C1CCC(c2c(Cl)cc(CNC(=O)C3(c4ccnc(F)c4)CC(F)(F)C3)cc2Cl)C(=O)N1 (stereo not drawn) [Compound 136, N-(3,5-dichloro-4-(2,6-dioxopiperidin-3-yl)benzyl)-3,3-difluoro-1-(2-fluoropyridin-4-yl)cyclobutane-1-carboxamide]
50	≤ 100	97	> 75	1	≤ 100	O=C1CC(C(=O)NCc2cc(Cl)c(C3CCC(=O)NC3=O)c(Cl)c2)(c2ccc(F)cc2)C1 (stereo not drawn) [Compound 137, N-(3,5-dichloro-4-(2,6-dioxopiperidin-3-yl)benzyl)-1-(4-fluorophenyl)-3-oxocyclobutane-1-carboxamide]
180	100 to 1000	88	> 75	26	≤ 100	O=C1CCC(c2ccc(CNC(=O)C3(c4ccc(F)cc4)CCOCC3)cc2Cl)C(=O)N1 (stereo not drawn) [Compound 138]
40	≤ 100	90	> 75	8	≤ 100	O=C1CCC(c2c(Cl)cc(CNC(=O)C3(c4ccc(F)cc4)CC(F)(F)C3)cc2Cl)C(=O)N1 (stereo not drawn) [Compound 139, N-(3,5-dichloro-4-(2,6-dioxopiperidin-3-yl)benzyl)-3,3-difluoro-1-(4-fluorophenyl)cyclobutane-carboxamide]
90	≤ 100	89	> 75	14	≤ 100	O=C1CCC(c2c(Cl)cc(CNC(=O)C3(c4ccc(F)cc4)COC3)cc2Cl)C(=O)N1 (stereo not drawn) [Compound 140]
20	≤ 100	91	> 75	6	≤ 100	O=C1CCC(c2c(Cl)cc(CNC(=O)C3(c4ccc(F)cc4)CCOC3)cc2Cl)C(=O)N1 (stereo not drawn) [Compound 141]
50	≤ 100	94	> 75	3	≤ 100	O=C1CCC(c2c(Cl)cc(CNC(=O)C3(c4ccc(F)cc4)CCOCC3)cc2Cl)C(=O)N1 (stereo not drawn) [Compound 142]
40	≤ 100	92	> 75	3	≤ 100	O=C1CCC(c2c(Cl)cc(CNC(=O)C3(c4ccncc4)CCCC3)cc2Cl)C(=O)N1 (stereo not drawn) [Compound 143, N-(3,5-dichloro-4-(2,6-dioxopiperidin-3-yl)benzyl)-1-(pyridin-4-yl)cyclopentane-1-carboxamide]
50	≤ 100	78	> 75	6	≤ 100	O=C1CCC(c2c(Cl)cc(CNC(=O)C3(c4ccncc4)CCC3)cc2Cl)C(=O)N1 (stereo not drawn) [Compound 144]
430	100 to 1000	86	> 75	10	≤ 100	Cc1cc(C(C)(C)C(=O)NCc2cc(Cl)c(C3CCC(=O)NC3=O)c(Cl)c2)no1 (stereo not drawn) [Compound 145]
180	100 to 1000	91	> 75	5	≤ 100	CC(C)(C(=O)NCc1cc(Cl)c(C2CCC(=O)NC2=O)c(Cl)c1)c1cc2ocnc2cn1 (stereo not drawn) [Compound 146]
550	100 to 1000	52	50 to 75	776	100 to 1000	CC(C)(O)c1cnc(C(C)(C)C(=O)NCc2cc(Cl)c(C3CCC(=O)NC3=O)c(Cl)c2)nc1 (stereo not drawn) [Compound 147]
150	100 to 1000	58	50 to 75	176	100 to 1000	Cn1cccc(C(C)(C)C(=O)NCc2cc(Cl)c(C3CCC(=O)NC3=O)c(Cl)c2)c1=O (stereo not drawn) [Compound 148, N-(3,5-dichloro-4-(2,6-dioxopiperidin-3-yl)benzyl)-2-methyl-2-(1-methyl-2-oxo-1,2-dihydropyridin-3-yl)propanamide]
130	100 to 1000	85	> 75	12	≤ 100	CC(C)(C(=O)NCc1cc(Cl)c(C2CCC(=O)NC2=O)c(Cl)c1)c1cc(F)ccn1 (stereo not drawn) [Compound 149]
150	100 to 1000	53	50 to 75	91	≤ 100	Cc1nccc(C(C)(C)C(=O)NCc2cc(Cl)c(C3CCC(=O)NC3=O)c(Cl)c2)n1 (stereo not drawn) [Compound 150]
480	100 to 1000	60	50 to 75	88	≤ 100	CC(C)(C(=O)NCc1cc(Cl)c(C2CCC(=O)NC2=O)c(Cl)c1)c1cc(C2CC2)ncn1 (stereo not drawn) [Compound 151]

SMILES	EC50 (CRBN-DDB1) [nM]	EC50 (CRBN-DDB1; HTRF class, Cereblon binding) [nM]	Dmax (NEK7; read-out: NEK7 NanoBiT Dmax) [%]	Dmax (NEK7; [1]) [%]	DC50 (NEK7; read-out: NEK7 NanoBiT DC50) [nM]	DC50 (NEK7; [2]) [nM]
CN1CCC(C(=O)NCc2cc(Cl)c(C3CCC(=O)NC3=O)c(Cl)c2)(c2ccc(F)cc2)CC1 (stereo not drawn) [Compound 135, N-(3,5-dichloro-4-(2,6-dioxopiperidin-3-yl)benzyl)-4-(4-fluorophenyl)-1-methylpiperidine-4-carboxamide formate]	20	≤ 100	71	50 to 75	16	≤ 100
